# Values of other authors in US12165861B2, “Mass spectrometry method for measuring vitamin B6 in body fluid” (Quest Diagnostics Investments Incorporated, priority 2007, dated 2024).
substance,measurement,setting,value
vitamin B6,time to plasma peak,"100 mg of vitamin B6, under normal conditions",2 h
same,half-life,"100 mg of vitamin B6, under normal conditions, plasma",8 h
same,change in plasma PLP,doses of over 25 mg,little change
